According to patent publication US7829563B2, “Aminoamides as orexin antagonists” (Hoffmann-La Roche Inc., priority 2007, dated 2010):

Molecular target: T1, human orexin-2 (hOX2) receptors (Homo sapiens, UniProt O43614)
T1 construct: expressed in transfected cells
T1 sequence (O43614 1-444): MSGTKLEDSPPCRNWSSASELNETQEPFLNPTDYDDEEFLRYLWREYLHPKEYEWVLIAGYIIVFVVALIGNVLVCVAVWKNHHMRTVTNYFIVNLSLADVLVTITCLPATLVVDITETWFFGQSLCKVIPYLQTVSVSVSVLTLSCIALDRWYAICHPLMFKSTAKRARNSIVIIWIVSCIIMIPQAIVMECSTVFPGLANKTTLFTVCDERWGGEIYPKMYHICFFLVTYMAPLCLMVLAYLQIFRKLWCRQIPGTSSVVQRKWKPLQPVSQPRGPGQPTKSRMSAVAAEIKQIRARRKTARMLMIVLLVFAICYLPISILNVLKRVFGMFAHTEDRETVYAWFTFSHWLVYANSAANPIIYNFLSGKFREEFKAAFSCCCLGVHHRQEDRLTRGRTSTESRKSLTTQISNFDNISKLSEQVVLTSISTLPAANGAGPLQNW
Test: Intracellular Ca2+ mobilization assay (FLIPR), antagonism of orexin-A
Type: cell-based
Details: CHO(dHFr−) cells stably expressing hOX2; orexin-A at EC80 as agonist; Kb=IC50/(1+[A]/EC50); read-out: Kb (μM) OX2R (human)
Summary of the method: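 Fluo-4-loaded CHO(dHFr−) cells stably expressing hOX2 were pre-incubated 25 min at 37° C with antagonist (11 concentrations, 0.0001-10 μM), then stimulated with orexin-A at daily-determined EC80. Peak FLIPR fluorescence was fitted to the Hill equation for IC50, and Kb was derived as IC50/(1+[A]/EC50).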

| SMILES | Kb |
| --- | --- |
| CNC(=O)[C@H](N[C@@H](CCc1ccc(C(F)(F)F)cc1)c1cc(C)ccc1F)c1ccccc1 [Example 123, (R)-2-[(S)-1-(2-Fluoro-5-methyl-phenyl)-3-(4-trifluoromethyl-phenyl)-propylamino]-N-methyl-2-phenyl-acetamide] | 0.0129 µM |
| CNC(=O)[C@H](N[C@@H](CCc1ccc(C(F)(F)F)cc1)c1cccc(OC(F)F)c1)c1ccc(C)cc1 [Example 389, (R)-2-[(S)-1-(3-Difluoromethoxy-phenyl)-3-(4-trifluoromethyl-phenyl)-propylamino]-N-methyl-2-p-tolyl-acetamide] | 0.0048 µM |
| CNC(=O)[C@H](N[C@@H](CCc1ccc(Cl)cc1)c1ccc(OC)c(OC)c1Cl)c1ccccc1 (racemic) [Example 40, (S,R)-2-[(R,S)-1-(2-Chloro-3,4-dimethoxy-phenyl)-3-(4-chloro-phenyl)-propylamino]-N-methyl-2-phenyl-acetamide] | 0.0068 µM |
| CNC(=O)[C@H](N[C@@H](CCc1ccc(Cl)cc1)c1ccc(F)c(C)c1)c1ccccc1 [Example 392, (R)-2-[(S)-3-(4-Chloro-phenyl)-1-(4-fluoro-3-methyl-phenyl)-propylamino]-N-methyl-2-phenyl-acetamide] | 0.0059 µM |
| CNC(=O)[C@H](N[C@@H](CCc1ccc(Cl)cc1)c1ccc(OC)c(OC)c1)c1ccc(Cl)cc1 (racemic) [Example 319, (R,S)-2-(4-Chloro-phenyl)-2-[(S,R)-3-(4-chloro-phenyl)-1-(3,4-dimethoxy-phenyl)-propylamino]-N-methyl-acetamide] | 0.0086 µM |
| CNC(=O)[C@H](N[C@H](CCc1cccc(C(F)(F)F)c1)c1ccc(OC)c(OC)c1)c1ccccc1 (racemic) [Example 320, (R,S)-2-[(R,S)-1-(3,4-Dimethoxy-phenyl)-3-(3-trifluoromethyl-phenyl)-propylamino]-N-methyl-2-phenyl-acetamide] | 0.0021 µM |
| CNC(=O)[C@H](N[C@@H](CCc1ccc(Cl)cc1)c1ccc(OC)c(OC)c1)c1ccccc1 [Example 163, (R)-2-[(S)-3-(4-Chloro-phenyl)-1-(3,4-dimethoxy-phenyl)-propylamino]-N-methyl-2-phenyl-acetamide] | 0.0011 µM |

Continued, values first:

| Kb | SMILES |
| --- | --- |
| 0.0144 µM | CNC(=O)[C@H](N[C@@H](CCc1ccc(C(F)(F)F)nc1)c1cccc(OC(F)F)c1)c1ccccc1 (racemic) [Example 225, (S,R)-2-[(R,S)-1-(3-Difluoromethoxy-phenyl)-3-(6-trifluoromethyl-pyridin-3-yl)-propylamino]-N-methyl-2-phenyl-acetamide] |
| 0.0057 µM | CNC(=O)[C@H](N[C@@H](CCc1ccc(C(F)(F)F)nc1)c1ccc(Cl)c(OC)c1)c1ccc(F)cc1 (racemic) [Example 224, (S,R)-2-[(R,S)-1-(4-Chloro-3-methoxy-phenyl)-3-(6-trifluoromethyl-pyridin-3-yl)-propylamino]-2-(4-fluoro-phenyl)-N-methyl-acetamide] |
| 0.0178 µM | CCNC(=O)[C@H](N[C@@H](CCc1ccc(C(F)(F)F)nc1)c1ccc(F)c(C)c1)c1ccccc1 (racemic) [Example 340, (R,S)—N-Ethyl-2-[(S,R)-1-(4-fluoro-3-methyl-phenyl)-3-(6-trifluoromethyl-pyridin-3-yl)-propylamino]-2-phenyl-acetamide] |
| 0.0044 µM | Cc1cc([C@H](CCc2ccc(C(F)(F)F)nc2)N[C@@H](C(=O)NCCO)c2ccccc2)ccc1F (racemic) [Example 356, (R,S)-2-[(S,R)-1-(4-Fluoro-3-methyl-phenyl)-3-(6-trifluoromethyl-pyridin-3-yl)-propylamino]-N-(2-hydroxy-ethyl)-2-phenyl-acetamide] |
| 0.0073 µM | CNC(=O)[C@H](N[C@@H](CCc1ccc(C(F)(F)F)nc1)c1ccc(Cl)c(OC)c1)c1ccccc1 (racemic) [Example 216, (S,R)-2-[(R,S)-1-(4-Chloro-3-methoxy-phenyl)-3-(6-trifluoromethyl-pyridin-3-yl)-propylamino]-N-methyl-2-phenyl-acetamide] |
| 0.0124 µM | CNC(=O)[C@H](N[C@@H](CCc1ccc(C)cc1)c1ccc(F)c(C)c1)c1ccccc1 (racemic) [Example 365, (R,S)-2-[(S,R)-1-(4-Fluoro-3-methyl-phenyl)-3-p-tolyl-propylamino]-N-methyl-2-phenyl-acetamide] |
| 0.008 µM | CNC(=O)[C@H](N[C@H](CCc1ccc(C(F)(F)F)nc1)c1ccc(Cl)c(OC)c1)c1ccccc1 (racemic) [Example 215, (S,R)-2-[(S,R)-1-(4-Chloro-3-methoxy-phenyl)-3-(6-trifluoromethyl-pyridin-3-yl)-propylamino]-N-methyl-2-phenyl-acetamide] |
| 0.009 µM | CNC(=O)[C@@H](N[C@@H](CCc1ccc(C(F)(F)F)cc1)c1ccc(OC)c(OC)c1)c1ccc(Cl)cc1 (racemic) [Example 33, (S,R)-2-(4-Chloro-phenyl)-2-[(S,R)-1-(3,4-dimethoxy-phenyl)-3-(4-trifluoromethyl-phenyl)-propylamino]-N-methyl-acetamide] |
| 0.0164 µM | CNC(=O)[C@H](N[C@@H](CCc1ccc(C(F)(F)F)nc1)c1ccc(F)c(C)c1)c1ccc(OC)cc1 (racemic) [Example 350, (R,S)-2-[(S,R)-1-(4-fluoro-3-methyl-phenyl)-3-(6-trifluoromethyl-pyridin-3-yl)-propylamino]-2-(4-methoxy-phenyl)-N-methyl-acetamide] |
| 0.0148 µM | CNC(=O)[C@H](N[C@@H](CCc1ccc(C(F)(F)F)nc1)c1cc(Cl)ccc1OC)c1ccc(F)cc1 [Example 104, (R)-2-[(S)-1-(5-Chloro-2-methoxy-phenyl)-3-(6-trifluoromethyl-pyridin-3-yl)-propylamino]-2-(4-fluoro-phenyl)-N-methyl-acetamide] |
